The values below come from patent EP0671924B1, “DIGITALIS-LIKE COMPOUNDS” (YISSUM RESEARCH DEVELOPMENT COMPANY OF THE HEBREW …, priority 1992, dated 1994).

This assay concerns digoxin antibody. Type of assay: binding. The protocol: Measurement of digoxin-like immunoreactivity: Radioimmunoassay was performed with digoxin RIA kit obtained from Amersham International (Amersham, Buckinghamshire, England). Assay conditions were as recommended by the manufacturer.
Digoxin radioimmunoassay was performed using commercially available kit. The concentration of the partially purified lens DLC was determined from its ability to inhibit [^3H]-ouabain binding assuming identical affinity to the ouabain receptor as ouabain and MW of 372.

With `C[C@@H]1O[C@@H](O[C@H]2C[C@@H](O)[C@]3(CO)[C@H]4[C@H](O)C[C@]5(C)[C@@H](C6=CC(=O)OC6)CC[C@]5(O)[C@@H]4CC[C@]3(O)C2)[C@H](O)[C@H](O)[C@H]1O` [Ouabain], the Cross reactivity was 0.012% and the Digoxin-like immunoreactive material came out at 1.21 ng/mL.
`C[C@]12CC[C@H](O)C[C@H]1CC[C@@H]1[C@@H]2CC[C@]2(C)[C@@H](c3ccc(=O)oc3)CC[C@]12O` [Bufalin] had a Cross reactivity of 0.045% and a Digoxin-like immunoreactive material of 4.53 ng/mL.
Regarding `C[C@H]1O[C@@H](O[C@H]2[C@@H](O)C[C@H](O[C@H]3[C@@H](O)C[C@H](O[C@H]4CC[C@@]5(C)[C@H](CC[C@@H]6[C@@H]5C[C@@H](O)[C@]5(C)[C@@H](C7=CC(=O)OC7)CC[C@]65O)C4)O[C@@H]3C)O[C@@H]2C)C[C@H](O)[C@@H]1O` [Digoxin], the Cross reactivity worked out at 100% and the Digoxin-like immunoreactive material is recorded as 10,000 ng/ml.
